Measurements reported in ChEMBL document CHEMBL3808364, “The SAR of brain penetration for a series of heteroaryl urea FAAH inhibitors” (Bioorg Med Chem Lett, 2016).
Active and inactive are the calls of the source. The rule behind the calls is not given here.

Legend:
Rattus norvegicus [1] = assay: Inhibition of FAAH in Sprague-Dawley rat brain homogenate assessed as time duration needed for enzyme activity recovery by measuring [3H]-anandamide hydrolysis at 20 mg/kg by liquid scintillation analysis; type: functional
[2] = Clearance in Sprague-Dawley rat; type: ADME, organism-based; conditions: in vivo
[3] = Volume of distribution at Steady state in Sprague-Dawley rat; type: ADME, organism-based; conditions: in vivo, read-out: Vdss
[4] = Oral bioavailability in Sprague-Dawley rat; type: ADME, organism-based; conditions: in vivo
[5] = Dissociation constant, pKa of the compound; type: physicochemical
Rattus norvegicus [6] = assay: Inhibition of FAAH in Sprague-Dawley rat brain homogenate assessed as increase in PEA levels at 20 mg/kg after 0.5 to 4 hrs by […]; type: functional, organism-based
Rattus norvegicus [7] = assay: Inhibition of FAAH in Sprague-Dawley rat brain homogenate assessed as increase in OEA levels at 20 mg/kg after 0.5 to 4 hrs by […]; type: functional, organism-based
[8] = Ratio of drug level in brain to plasma in Sprague-Dawley rat at 10 mg/kg via oral gavage; type: ADME, organism-based; conditions: read-out: BPR
[9] = Dissociation constant, pKa of the compound at pH 7.2; type: physicochemical
[10] = target: T1, Fatty-acid amide hydrolase 1 (Rattus norvegicus, UniProt P97612); assay: Apparent inhibition of recombinant rat FAAH expressed in SK-N-MC cells assessed as [3H]-anandamide hydrolysis after 1 hr by liquid scintillation analysis; type: cell-based
T1 sequence (P97612 whole entry): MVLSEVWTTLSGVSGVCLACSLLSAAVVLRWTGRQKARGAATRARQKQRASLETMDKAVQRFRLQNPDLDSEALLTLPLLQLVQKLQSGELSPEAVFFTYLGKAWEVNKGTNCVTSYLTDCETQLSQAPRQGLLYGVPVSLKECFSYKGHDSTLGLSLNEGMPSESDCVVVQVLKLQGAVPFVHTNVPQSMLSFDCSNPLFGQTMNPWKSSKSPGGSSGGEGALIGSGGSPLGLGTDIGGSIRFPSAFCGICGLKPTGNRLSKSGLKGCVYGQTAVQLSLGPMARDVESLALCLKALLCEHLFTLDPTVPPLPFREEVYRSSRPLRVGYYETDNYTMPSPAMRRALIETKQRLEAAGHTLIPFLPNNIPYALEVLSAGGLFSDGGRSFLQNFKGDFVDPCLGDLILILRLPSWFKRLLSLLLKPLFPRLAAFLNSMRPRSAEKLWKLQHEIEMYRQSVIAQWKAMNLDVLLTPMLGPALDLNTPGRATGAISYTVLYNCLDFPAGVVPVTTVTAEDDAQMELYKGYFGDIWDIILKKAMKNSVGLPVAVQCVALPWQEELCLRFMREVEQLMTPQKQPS

[11] = Ratio of drug level in brain to plasma in Sprague-Dawley rat at 20 mg/kg via oral gavage; type: ADME, organism-based; conditions: read-out: BPR
[12] = target: T2, Fatty-acid amide hydrolase 1 (Homo sapiens, UniProt O00519)
T2 sequence (O00519 whole entry): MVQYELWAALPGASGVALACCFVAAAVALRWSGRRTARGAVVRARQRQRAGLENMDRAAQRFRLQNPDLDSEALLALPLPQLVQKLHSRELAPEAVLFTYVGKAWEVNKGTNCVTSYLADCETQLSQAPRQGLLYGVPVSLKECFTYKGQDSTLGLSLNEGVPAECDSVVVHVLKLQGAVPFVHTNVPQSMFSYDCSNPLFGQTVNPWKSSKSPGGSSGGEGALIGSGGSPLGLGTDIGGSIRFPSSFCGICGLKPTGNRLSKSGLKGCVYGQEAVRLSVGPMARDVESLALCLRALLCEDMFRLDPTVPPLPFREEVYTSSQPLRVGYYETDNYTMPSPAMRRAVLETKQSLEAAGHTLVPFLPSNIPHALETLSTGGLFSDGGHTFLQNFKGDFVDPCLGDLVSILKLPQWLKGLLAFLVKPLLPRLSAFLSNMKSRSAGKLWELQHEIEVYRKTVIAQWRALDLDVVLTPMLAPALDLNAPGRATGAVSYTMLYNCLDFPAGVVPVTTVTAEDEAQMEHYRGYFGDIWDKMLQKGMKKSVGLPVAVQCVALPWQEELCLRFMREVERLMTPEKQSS

Rattus norvegicus [13] = assay: Inhibition of FAAH in Sprague-Dawley rat brain homogenate assessed as residual activity measured as [3H]-anandamide hydrolysis at 20 mg/kg within 30 mins by liquid scintillation analysis; type: functional
Rattus norvegicus [14] = organism: Rattus norvegicus; conditions: Sprague-Dawley, Brain, 20 mg/kg
Description: Inhibition of FAAH in Sprague-Dawley rat brain homogenate assessed as reduction in residual activity measured as [3H]-anandamide hydrolysis at 20 mg/kg measured after 0.5 to 6 hrs by liquid scintillation analysis

Rattus norvegicus [15] = assay: Inhibition of FAAH in Sprague-Dawley rat brain homogenate assessed as residual activity measured as [3H]-anandamide hydrolysis at 6 mg/kg after 4 hrs by liquid scintillation analysis; type: functional
Rattus norvegicus [16] = assay: Inhibition of FAAH in Sprague-Dawley rat brain homogenate assessed as time duration needed for enzyme activity recovery by measuring [3H]-anandamide hydrolysis at 6 mg/kg by liquid scintillation analysis; type: functional
Rattus norvegicus [17] = organism: Rattus norvegicus; conditions: Sprague-Dawley, Brain, 6 mg/kg
Description: Inhibition of FAAH in Sprague-Dawley rat brain homogenate assessed as increase in PEA levels at 6 mg/kg after 0.5 to 4 hrs by liquid scintillation analysis

Rattus norvegicus [18] = organism: Rattus norvegicus; conditions: Sprague-Dawley, Brain, 6 mg/kg; remark: listed apart in the source
Description: Inhibition of FAAH in Sprague-Dawley rat brain homogenate assessed as increase in OEA levels at 6 mg/kg after 0.5 to 4 hrs by liquid scintillation analysis

SMILES: O=C(Nc1cc[nH]n1)N1CCN(Cc2cccc(Oc3ccc(Cl)cc3)c2)CC1
- Time (Rattus norvegicus [1]): 24 h
- clearance [2]: 8.33 mL/min/kg
- Vd [3]: 2 L/kg
- bioavailability [4]: 75%
- pKa [5]: 2.5
- FAAH inhibition (PEA level increase), active/inactive (Rattus norvegicus [6]): Active
- OEA level increase (activity call) (Rattus norvegicus [7]): Active

SMILES: O=C(Nc1ccccc1)N1CCN(Cc2cccc(Oc3ccc(Cl)cc3)c2)CC1
- Time (Rattus norvegicus [1]): 24 h
- Kp [8]: 3.64

SMILES: O=C(Nc1cccc2nccn12)N1CCN(Cc2cccc(Oc3ccc(Cl)cc3)c2)CC1
- Time (Rattus norvegicus [1]): 24 h
- pKa [9]: 6.8
- FAAH inhibition (PEA level increase), active/inactive (Rattus norvegicus [6]): Active
- OEA level increase (activity call) (Rattus norvegicus [7]): Active

SMILES: O=C(Nc1ccon1)N1CCN(Cc2cccc(Oc3ccc(Cl)cc3)c2)CC1
- Time (Rattus norvegicus [1]): 24 h
- clearance [2]: 10 mL/min/kg
- Vd [3]: 2.6 L/kg
- bioavailability [4]: 50%
- FAAH inhibition (PEA level increase), active/inactive (Rattus norvegicus [6]): Active
- OEA level increase (activity call) (Rattus norvegicus [7]): Active

SMILES: O=C(Nc1cccnc1)N1CCCC(Cc2cccc(Oc3ccc(F)cc3)c2)C1 (stereo not given)
- Time (Rattus norvegicus [1]): 24 h
- IC50 [10]: 41 nM
- Kp [11]: 0.33
- FAAH inhibition (PEA level increase), active/inactive (Rattus norvegicus [6]): Active
- OEA level increase (activity call) (Rattus norvegicus [7]): Active
- IC50 [12]: 28 nM

SMILES: O=C(Nc1cnccn1)N1CCN(Cc2cccc(Oc3ccc(Cl)cc3)c2)CC1
- Time (Rattus norvegicus [1]): 24 h
- IC50 [10]: 84 nM
- clearance [2]: 15.5 mL/min/kg
- Vd [3]: 4.11 L/kg
- bioavailability [4]: 35%
- pKa [5]: 0.6
- Activity (Rattus norvegicus [13]): 10%
- FAAH inhibition (PEA level increase), active/inactive (Rattus norvegicus [6]): Active
- OEA level increase (activity call) (Rattus norvegicus [7]): Active
- inhibition (Rattus norvegicus [14]): Active

SMILES: O=C(Nc1cnccc1Cl)N1CCN(Cc2cccc(Oc3ccc(Cl)cc3)c2)CC1
- Time (Rattus norvegicus [1]): 24 h
- IC50 [10]: 20 nM
- clearance [2]: 46.5 mL/min/kg
- Vd [3]: 3.33 L/kg
- bioavailability [4]: 18%
- pKa [5]: 3.85
- Kp [11]: 1.18
- FAAH inhibition (PEA level increase), active/inactive (Rattus norvegicus [6]): Active
- OEA level increase (activity call) (Rattus norvegicus [7]): Active
- IC50 [12]: 1.3 nM

SMILES: O=C(Nc1nn[nH]n1)N1CCN(Cc2cccc(Oc3ccc(Cl)cc3)c2)CC1
- Activity (Rattus norvegicus [15]): <10%
- Time (Rattus norvegicus [16]): 24 h
- inhibition (Rattus norvegicus [17]): Active
- inhibition (Rattus norvegicus [18]): Active

SMILES: O=C(Nc1cccnc1)N1CCN(Cc2cccc(Oc3ccc(Br)cc3)c2)CC1
- Time (Rattus norvegicus [1]): 24 h
- IC50 [10]: 20 nM
- clearance [2]: 13.3 mL/min/kg
- Vd [3]: 2.8 L/kg
- bioavailability [4]: 100%
- Kp [11]: 1.58
- IC50 [12]: 2.4 nM

SMILES: O=C(Nc1cccnc1)N1CCN(Cc2cccc(Oc3ccc(F)cc3)c2)CC1
- Time (Rattus norvegicus [1]): 24 h
- IC50 [10]: 290 nM
- clearance [2]: 10 mL/min/kg
- Vd [3]: 4 L/kg
- bioavailability [4]: 100%
- Kp [11]: 1.57
- FAAH inhibition (PEA level increase), active/inactive (Rattus norvegicus [6]): Active
- OEA level increase (activity call) (Rattus norvegicus [7]): Active
- IC50 [12]: 16 nM
